The values that follow come from ChEMBL document CHEMBL5126572, “Synthesis and biological evaluation of new series of benzamide derivatives containing urea moiety as sEH inhibitors” (Bioorg Med Chem Lett, 2022).

The target in data set [1] is T1, Bifunctional epoxide hydrolase 2 (Homo sapiens) (UniProt P34913).
T1 sequence (whole entry): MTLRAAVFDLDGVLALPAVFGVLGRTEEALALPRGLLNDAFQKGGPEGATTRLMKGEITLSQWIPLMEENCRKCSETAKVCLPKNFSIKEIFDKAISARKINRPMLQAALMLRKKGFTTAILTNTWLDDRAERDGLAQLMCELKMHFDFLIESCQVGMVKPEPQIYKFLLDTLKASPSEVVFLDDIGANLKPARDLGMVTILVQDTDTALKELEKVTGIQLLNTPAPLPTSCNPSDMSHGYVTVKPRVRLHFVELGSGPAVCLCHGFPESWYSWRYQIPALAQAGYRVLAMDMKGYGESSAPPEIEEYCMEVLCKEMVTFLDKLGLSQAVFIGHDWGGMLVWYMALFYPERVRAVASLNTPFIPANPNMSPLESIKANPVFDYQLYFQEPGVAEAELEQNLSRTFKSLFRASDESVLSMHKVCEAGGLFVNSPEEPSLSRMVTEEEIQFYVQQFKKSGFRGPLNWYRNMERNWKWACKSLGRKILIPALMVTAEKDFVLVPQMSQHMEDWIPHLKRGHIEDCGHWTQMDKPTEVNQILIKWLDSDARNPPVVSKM
Briefly: Inhibition of sEH (unknown origin) at 100 nM relative to control.

The nature of data set [2]: Microsomal stability in rat liver microsomes assessed as half life. The class given is ADME, Microsome. In general terms: Liver microsomes are a subcellular fraction often used to study metabolism.
A short description of data set [3]: Microsomal stability in human liver microsomes assessed as half life. The class given is ADME, Microsome.
Data set [4] in a line: Microsomal stability in dog liver microsomes assessed as half life. The class given is ADME, Canis lupus familiaris, Microsome.
A short description of data set [5]: Microsomal stability in mouse liver microsomes assessed as half life. The class given is ADME, Microsome.
The test system of data set [6] is Rattus norvegicus. Put plainly: Antinociceptive activity in carrageenan-induced inflammatory pain Sprague-Dawley rat model assessed as increase in mechanical withdrawal threshold at 50 mg/kg, ip by von-frey filament assay. The class given is functional, organism-based.

The source made the active and inactive calls.

Usually inhibition stands for how much of the control response was suppressed. On to `Cc1cc(C(=O)Nc2ccc(Cl)cc2)ccc1N(CCN1CCS(=O)(=O)CC1)C(=O)Nc1ccc(Cl)cc1`, for which, in data set [1], the inhibition is 95.2%.
Usually half-life stands for how long it takes for the measured level to halve. Regarding `Cc1cc(C(=O)Nc2ccc(Cl)cc2)ccc1N(CCN1CCOCC1=O)C(=O)Nc1ccc(Cl)cc1`, the half-life was determined as 10.7 min in data set [2], 9.1 min in data set [3], 12.9 min in data set [4] and 8.9 min in data set [5]. Moreover, in data set [1], the inhibition came to 93.9%.
The molecule `Cc1cc(C(N)=O)ccc1N(CCN1CCOCC1)C(=O)Nc1ccc(Cl)cc1` returned an inhibition in data set [1] of 75.9%.
Same read-out and setting: for `Cc1cc(C(=O)Nc2ccc(Cl)cc2)ccc1N(CCO)C(=O)Nc1ccc(Cl)cc1` the value was 74.3%.
For the molecule `Cc1cc(C(=O)Nc2ccc(Cl)cc2)ccc1N(CCN1CC[S+]([O-])CC1)C(=O)Nc1ccc(Cl)cc1`, the inhibition in data set [1] was determined as 90.4%.
The same measure, in the same setting: for `Cc1cc(C(=O)Nc2ccc(Cl)cc2)ccc1N(CCN1CCOC[C@@H]1C)C(=O)Nc1ccc(Cl)cc1` the value was 63.1%.
On the same count and under the same terms, for `Cc1cc(C(=O)Nc2ccc(Cl)cc2)ccc1N(CC(C)C)C(=O)Nc1ccc(Cl)cc1` the value was 69.4%.
For `Cc1cc(C(=O)Nc2ccc(C(F)(F)F)nc2)ccc1N(CCN1CCOCC1)C(=O)Nc1ccc(Cl)cc1`, the half-life worked out at 5.4 min in data set [2], 5.8 min in data set [3], 5.4 min in data set [4] and 7.7 min in data set [5]. In data set [1], this molecule displayed an inhibition of 87.8%.
`CC(=O)c1ccc(NC(=O)c2ccc(N(CCN3CCOCC3)C(=O)Nc3ccc(Cl)cc3)c(C)c2)cc1` showed an inhibition in data set [1] of 84.5%.
Regarding `Cc1ccc(-c2cc(C(F)(F)F)nn2-c2ccc(S(N)(=O)=O)cc2)cc1`, the outcome in data set [6] was Active.
Same read-out and setting: for `O=C(NC12CC3CC(CC(C3)C1)C2)N[C@H]1CC[C@H](Oc2ccc(C(=O)O)cc2)CC1` the value was “Active”.
For `Cc1cc(C(=O)Nc2ccc3c(c2)OCO3)ccc1N(CCN1CCCC1=O)C(=O)Nc1ccc(Cl)cc1`, the half-life in data set [3] amounted to 3.9 min; in data set [4], 3.3 min. Besides, in data set [1], the inhibition worked out at 92.7%.
For `Cc1cc(C(=O)Nc2ccc(Cl)cc2)ccc1N(CCN(C)C)C(=O)Nc1ccc(Cl)cc1`, in data set [1], the inhibition came out at 67.7%.
`Cc1cc(C(=O)Nc2ccc(Cl)cc2)ccc1N(CCN1CCCC1)C(=O)Nc1ccc(Cl)cc1`: the half-life in data set [2] came out at 27.3 min; in data set [3] it was 197 min; in data set [4] it was 137 min; in data set [5] it was 35.8 min. The result in data set [6] was Active. Further, the inhibition in data set [1] is 98.5%.
Take `Cc1cc(C(=O)Nc2ccc(F)cn2)ccc1N(CCN1CCCC1)C(=O)Nc1ccc(Cl)cc1`: the half-life stood at 16 min in data set [2], 27.5 min in data set [3], 33.5 min in data set [4] and 26.2 min in data set [5]. Also, the inhibition in data set [1] worked out at 94.8%.
Regarding `Cc1cc(C(=O)Nc2cnn(C)c2)ccc1N(CCN1CCOCC1)C(=O)Nc1ccc(Cl)cc1`, in data set [1], the inhibition was 87.7%.
On to `Cc1cc(C(=O)Nc2ccc(F)cn2)ccc1N(CCN1CCCC1=O)C(=O)Nc1ccc(Cl)cc1`, for which the half-life in data set [2] amounted to 3.1 min; in data set [3], 4 min; in data set [4], 3.1 min; in data set [5], 3.7 min. In data set [1], this molecule yielded an inhibition of 94.5%.
In data set [1], `Cc1cc(C(=O)Nc2ccccn2)ccc1N(CCN1CCOCC1)C(=O)Nc1ccc(Cl)cc1` had an inhibition of 85.8%.
Consider `COCCN(C(=O)Nc1ccc(Cl)cc1)c1ccc(C(=O)Nc2ccc(Cl)cc2)cc1C`, for which the inhibition in data set [1] stood at 70.5%.
On the same count and under the same terms, for `Cc1cc(C(=O)Nc2ccc3c(c2)OCO3)ccc1N(CCN1CCCC1)C(=O)Nc1ccc(Cl)cc1` the value was 83.3%; for `Cc1cc(C(=O)Nc2ccc(Cl)cc2)ccc1N(CCN1CCSCC1)C(=O)Nc1ccc(Cl)cc1`, 83.7%; for `Cc1cc(C(=O)Nc2ccc(F)cn2)ccc1N(CCN1CCOCC1)C(=O)Nc1ccc(Cl)cc1`, 97.8%.
In the case of `CCN(CC)CCN(C(=O)Nc1ccc(Cl)cc1)c1ccc(C(=O)Nc2ccc(Cl)cc2)cc1C`, the inhibition in data set [1] was determined as 67.2%.
For the molecule `Cc1cc(C(=O)Nc2ccc(Cl)cc2)ccc1N(CC(=O)N1CCOCC1)C(=O)Nc1ccc(Cl)cc1`, the half-life in data set [2] amounted to 45.9 min; in data set [3], 31.9 min; in data set [4], 37 min; in data set [5] it was 28.3 min. The inhibition in data set [1] was determined as 95.7%.
For `Cc1cc(C(=O)Nc2ccc(Cl)cc2)ccc1N(CCN1CCOC[C@H]1C)C(=O)Nc1ccc(Cl)cc1`, the inhibition in data set [1] was found to be 67.1%.
Still for that read-out and setting: for `Cc1cc(C(=O)Nc2ccc(Cl)cc2)ccc1N(CCN1CCCCC1)C(=O)Nc1ccc(Cl)cc1` the value was 92.5%; for `Cc1cc(C(=O)Nc2ccc(Cl)cc2)ccc1NC(=O)Nc1ccc(Cl)cc1`, 80.3%.
In the case of `Cc1cc(C(=O)Nc2ccc3c(c2)OCO3)ccc1N(CCN1CCOCC1)C(=O)Nc1ccc(Cl)cc1`, the half-life in data set [3] is 6.9 min; in data set [4], 5.2 min; in data set [5], 4 min. The same molecule came in with an inhibition in data set [1] of 95.6%.
Consider `Cc1cc(C(=O)Nc2nccs2)ccc1N(CCN1CCOCC1)C(=O)Nc1ccc(Cl)cc1`, for which the inhibition in data set [1] was 62.8%.
Molecule `Cc1cc(C(=O)Nc2ccc(C#N)cc2)ccc1N(CCN1CCOCC1)C(=O)Nc1ccc(Cl)cc1` displayed an inhibition in data set [1] of 64%.
The same measure, in the same setting: for `Cc1cc(C(=O)Nc2cnccn2)ccc1N(CCN1CCOCC1)C(=O)Nc1ccc(Cl)cc1` the value was 62.3%.
For the molecule `Cc1cc(C(=O)Nc2ccc(Cl)cc2)ccc1N(CCN1CCCC1=O)C(=O)Nc1ccc(Cl)cc1`, the half-life came out at 4.5 min in data set [2], 9.5 min in data set [3], 11 min in data set [4] and 8.8 min in data set [5]. The same molecule yielded an inhibition in data set [1] of 98.9%.
